Our source for the GI50 values is patent US8410150B2, “Inhibitors of carnitine palmitoyltransferase and treating cancer” (University Health Network, priority 2007, dated 2013).

Read-outs that look alike come from different tables or passages of the source.

Common to all, as to test: Cell growth inhibition, SRB assay
Format in all cases: cell-based, human

The test system of one experiment is HCT-15. The note with it: Homo sapiens; Colon HCT-15, 3% FBS. As to the method: (§1) Compounds were dissolved in DMSO and further diluted in cell culture medium for the experiments performed. Cells were seeded into 96-well plates with 1,500-5,000 cells/well according to cell growth rate. After 24 h, DMEM medium containing 10% FBS were changed to DMEM containing 3% FBS for cancer cells and additional 3% FBS were added into the culture medium for normal cells. The compound was added into the cell culture at the indicated concentrations, and the final concentration of DMSO was adjusted to a final concentration of 0.1%. Cells were subjected to either normoxic condition (20% O2) for 6 days or hypoxic condition (0.2% O2) for 2 days and then transferred to normoxic condition for 4 days. Cell viability was assessed by Sulforhodamine B (SRB) assay at Day 6.
(§2) Sulforhodamine B (SRB) (Sigma, Oakville, ON, Canada) is a water-soluble dye that binds to the basic amino acids of the cellular proteins. Thus, colorimetric measurement of the bound dye provides an estimate of the total protein mass that is related to the cell number. The cells were fixed in situ by gently aspirating off the culture media and adding 50 ul of cold 10% trichloroacetic Acid (TCA) per well and incubated at 4° C. for 30-60 min. The plates were washed five times with water and allowed to air dry for 5 min. 50 ul of 0.4% (w/v) SRB dissolved in 1% (v/v) acetic acid were added into each well, plates were then incubated at RT for 30 min for staining, washed four times with 1% acetic acid to remove any unbound dye and then allowed to air dry for 5 min. Stain was solubilized with 100 ul of 10 mM Tris pH 10.5 per well. Absorbance was read at 570 nm on a spectrophotometer. GI50 (compound concentration required for 50% of growth inhibition) was calculated using GraphPad Prism 4.0 software (GraphPad Software, Inc., San Diego, Calif., USA).
(§3) Cell viability of various cell lines treated with 3-carboxy-N,N,N-trimethyl-2-pentadecanamidopropan-1-aminium (“nPAC”) and compound of Examples S7, S63, S66, S90, S89, S67, S75 and S10 was also assessed in a manner as described above in Example 5.

In the next experiment the test system is SW620. The following applies: Homo sapiens, SW-620; Colon SW620, 3% FBS. How it is done: as §1, §2, §3
Another experiment relates to SW480. The note with it: Homo sapiens; Colon SW480, 3% FBS. As to the method:
as §1, §2, §3

A further experiment relates to A54. The following applies: Homo sapiens; Lung A54, 3% FBS. How it is done: as §1, §2, §3
The next experiment concerns Hs578T. The note with it: Homo sapiens, Hs-578T; Breast Hs578T, 3% FBS. As to the method:
as §1, §2, §3

The next experiment deals with COLO-205. The following applies: Homo sapiens; Colon COLO-205, 3% FBS. How it is done: as §1, §2, §3
Another experiment relates to MCF-7. The note with it: Homo sapiens. As to the method: (§4) Human cancer cells (MCF-7, H358, H460, HCT116 p53^+/+, HCT116 p53^−/−, A172, PC-3, DU-145 and SW626) were maintained in DMEM medium containing 10% Fetal Bovine Serum (FBS) (Invitrogen, Burlington, ON, Canada) and normal cells HMEC, 184A1, NHBE and PrEC were cultured in MEGM, MEGM plus transferring and cholera toxin, BEGM and PrEGM supplemented with various growth factors (Cambrex, Charles city, IA, USA), respectively.
as §1, §2, §3

The test system of another experiment is A172. The following applies: Homo sapiens, A 172; Brain A172, 3% FBS; read-out: GI50. How it is done:
as §4, §1, §2, §3

The next experiment deals with PC-3. The note with it: Homo sapiens; Prostate PC-3, 3% FBS; read-out: GI50. How it is done: as §4, §1, §2, §3
For another experiment, the system named is SW626. The following applies: Homo sapiens; Ovarian SW626, 3% FBS; read-out: GI50. As to the method:
as §4, §1, §2, §3

A further experiment concerns H358. The note with it: Homo sapiens. How it is done:
as §4, §1, §2, §3

In a further experiment the test system is Caov-3. The note with it: Homo sapiens; Ovarian Caov-3, 3% FBS. As to the method:
as §1, §2, §3

In the next experiment the test system is MDA-231. The note with it: Homo sapiens, MDA-MB-231; Breast MDA-231, 3% FBS. How it is done: as §1, §2, §3
[1] abbreviates: MCF7, Breast MCF-7, 3% FBS, read-out: GI50.
Setting [2] is: NCI-H358, Lung H358, 3% FBS, read-out: GI50.

For `CCCCCCCCCCc1ccc(S(=O)(=O)N[C@H](CC(=O)O)C[N+](C)(C)C)cc1` [Example S75, (R)-3-carboxy-2-(4-decylphenylsulfonamido)-N,N,N-trimethylpropan-1-aminium 2,2,2-trifluoroacetate], the GI50 was 5600 nM in the experiment with HCT-15; 4100 nM in the experiment with SW620; 1900 nM in the experiment with SW480; 31000 nM with A54; 13000 nM in the experiment with Hs578T; 3600 nM in the experiment on COLO-205. Moreover, the GI50 in the experiment on MCF-7 (setting [1]) is 11000 nM; in the experiment on A172 it was 18000 nM; in the experiment with PC-3 it was 1500 nM; in the experiment on SW626 it was 4100 nM; in the experiment with H358 (setting [2]) it was 2800 nM.

For `CCCCCCCCCCCCc1ccc(NS(=O)(=O)N[C@H](CC(=O)O)C[N+](C)(C)C)cc1` [Example S89, (R)-3-(N-(4-dodecylphenyl)sulfamoylamino)-4-(trimethylammonio)-butanoate], the GI50 with Caov-3 was 1500 nM; with HCT-15, 2200 nM; in the experiment on SW620, 1900 nM; in the experiment on SW480, 1500 nM; in the experiment with A54 it was 21000 nM; in the experiment with Hs578T it was 7300 nM. Also, the GI50 in the experiment with COLO-205 worked out at 1400 nM; in the experiment with MCF-7 (setting [1]) it was 4200 nM; with A172, 4100 nM; in the experiment with PC-3, 1600 nM; with SW626, 2300 nM; in the experiment with H358 (setting [2]) it was 1400 nM.

With `CCCCCCCCCCCCCCc1ccc(NS(=O)(=O)N[C@H](CC(=O)O)C[N+](C)(C)C)cc1` [Example S90, (R)-3-(N-(4-tetradecylphenyl)sulfamoylamino)-4-(trimethylammonio)-butanoate], the GI50 came to 1600 nM in the experiment with Caov-3; 3300 nM in the experiment on HCT-15; 2400 nM with SW620; 1300 nM in the experiment with SW480; 21000 nM with A54; 8200 nM in the experiment on Hs578T. Further, the GI50 in the experiment on COLO-205 stood at 2400 nM; in the experiment on MCF-7 (setting [1]), 4000 nM; in the experiment on A172 it was 6600 nM; in the experiment on PC-3 it was 1300 nM; in the experiment on SW626, 3100 nM; with H358 (setting [2]) it was 1100 nM.

With `CCCCCCCOc1ccc(NC(=O)N[C@H](CC(=O)[O-])C[N+](C)(C)C)cc1` [Example S10, (R)-3-(3-(4-(heptyloxy)phenyl)ureido)-4-(trimethylammonio)butanoate], the GI50 with Caov-3 is 13000 nM; in the experiment with HCT-15, 28000 nM; in the experiment on SW620 it was 19000 nM; with MDA-231, more than 50000 nM; in the experiment on SW480, 9300 nM; with A54, more than 50000 nM. The GI50 was more than 50000 nM in the experiment on Hs578T; 4600 nM with COLO-205; 1000 ± 100 nM with MCF-7 (MCF7, 144 h, treated 6 days, SRB assay, mean±SD of 2 experiments (FIG. 1, 2), read-out: GI50 for MCF-7); 44000 nM in the experiment with MCF-7 (setting [1]); 40000 nM in the experiment with A172; 5300 nM with PC-3. Also, the GI50 with SW626 turned out to be 15000 nM; in the experiment with H358 (NCI-H358, 144 h, treated 6 days, SRB assay, mean±SD of 2 experiments (FIG. 1, 2), read-out: GI50 for H358), 4100 ± 1300 nM; in the experiment on H358 (setting [2]), 3400 nM.

For `CCCCCCCCCCc1ccc(C(=O)N[C@H](CC(=O)[O-])C[N+](C)(C)C)cc1` [Example S66, (R)-3-(4-decylbenzamido)-4-(trimethylammonio)butanoate], the GI50 was 1100 nM with HCT-15; 600 nM in the experiment with SW620; 9400 nM in the experiment on MDA-231; 300 nM in the experiment on SW480; 28000 nM in the experiment with A54; 8200 nM with Hs578T. The GI50 came to 400 nM in the experiment with COLO-205; 100 nM with MCF-7 (setting [1]); 1800 nM in the experiment on A172; 300 nM with PC-3; 1500 nM in the experiment on SW626; 400 nM in the experiment with H358 (setting [2]).

Take `CCCCCCCCCCOc1cccc(C(=O)N[C@H](CC(=O)[O-])C[N+](C)(C)C)c1` [Example S67, (R)-3-(3-(decyloxy)benzamido)-4-(trimethylammonio)butanoate]: the GI50 in the experiment with Caov-3 came out at 800 nM; with HCT-15, 14000 nM; in the experiment with SW620, 5500 nM; in the experiment with SW480, 700 nM; in the experiment on A54 it was 88000 nM; with Hs578T, 17000 nM. For the same molecule, the GI50 with COLO-205 is 2700 nM; in the experiment with MCF-7 (setting [1]), 700 nM; in the experiment with A172, 3600 nM; in the experiment with PC-3 it was 1500 nM; in the experiment on SW626 it was 2700 nM; in the experiment on H358 (setting [2]), 700 nM.

Consider `CCCCCCCCCCOc1ccc(C(=O)N[C@H](CC(=O)O)C[N+](C)(C)C)cc1` [Example S63, (R)-3-(4-(decyloxy)benzamido)-4-(trimethylammonio)butanoate 2,2,2-trifluoroacetate], for which the GI50 in the experiment with HCT-15 is 500 nM; in the experiment with SW620 it was 500 nM; in the experiment with MDA-231 it was 8500 nM; in the experiment on SW480, 400 nM; in the experiment with A54, 14000 nM; in the experiment on Hs578T, 3700 nM. Besides, the GI50 in the experiment on COLO-205 is 300 nM; in the experiment with MCF-7 (setting [1]), 400 nM; in the experiment on A172 it was 900 nM; with PC-3, 300 nM; in the experiment with SW626 it was 1200 nM; in the experiment on H358 (setting [2]), 400 nM.
